In paper PMC7529893, “Structural basis for substrate recognition and chemical inhibition of oncogenic MAGE ubiquitin ligases” (Nature Communications, 2020):

Each compound was assayed against T1, MAGE-A11:PCF11 interaction (GST-MAGE-A11 and FAM-PCF11_4) (Homo sapiens, UniProt P43364) (assay: TR-FRET primary / single point screen at 15 µM). Settings: single point TR-FRET screening of 797 quinoline compounds against MAGE-A11:PCF11.
T1 construct: GST-MAGE-A11 MHD (human MAGE-A11 MHD amino acid 218-429); made in house; host or cells: E. coli BL21(DE3)
T1 sequence (P43364 218-429): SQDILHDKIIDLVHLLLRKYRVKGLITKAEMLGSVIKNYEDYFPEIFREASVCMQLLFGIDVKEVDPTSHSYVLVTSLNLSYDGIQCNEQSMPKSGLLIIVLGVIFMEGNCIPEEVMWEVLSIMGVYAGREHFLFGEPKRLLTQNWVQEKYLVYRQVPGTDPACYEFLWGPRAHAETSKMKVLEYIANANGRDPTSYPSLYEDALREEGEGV
Type: binding
Outline: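 TR-FRET 520/490 nm emission ratio was read after 90 min at room temperature. Wells held 5 nM GST-MAGE-A11, 5 nM Tb-anti-GST, 200 nM FAM-PCF11_4 and 15 µM compound in Tris pH 7.5 buffer with MgCl2, BSA and DTT. %Inhibition was scaled to DMSO and minus-MAGE-A11 controls.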

In order of rising “percent inhibition (TR-FRET)” value:
1. Clc1ccc2c(NC3CCN(Cc4cccc5ccccc45)CC3)ccnc2c1 [SJ000523099]  -6.179
2. O=[N+]([O-])c1ccc(CN2CCC(Nc3ccnc4cc(Cl)ccc34)CC2)cc1 [SJ000523096]  -4.954
3. O=C(O)c1ccccc1CN1CCC(Nc2ccnc3cc(Cl)ccc23)CC1 [SJ000523098]  -2.194
4. O=[N+]([O-])c1ccccc1CN1CCC(Nc2ccnc3cc(Cl)ccc23)CC1 [SJ000523094]  -2.0257
5. Fc1ccc(CN2CCC(Nc3ccnc4cc(Cl)ccc34)CC2)cc1F [SJ000523089]  -1.958
6. Fc1ccccc1CN1CCC(Nc2ccnc3cc(Cl)ccc23)CC1 [SJ000523091]  -0.9977
7. O=[N+]([O-])c1cccc(CN2CCC(Nc3ccnc4cc(Cl)ccc34)CC2)c1 [SJ000523095]  0.8927
8. COc1cccc(CN2CCC(Nc3ccnc4cc(Cl)ccc34)CC2)c1 [SJ000523107]  3.1492
9. Clc1ccc2c(NC3CCN(Cc4ccc5ccccc5c4)CC3)ccnc2c1 [SJ000523100]  4.171
10. Fc1cccc(CN2CCC(Nc3ccnc4cc(Cl)ccc34)CC2)c1 [SJ000523092]  6.622
11. Clc1ccc2c(NC3CCN(Cc4ccc5c(c4)OCO5)CC3)ccnc2c1 [SJ000523087]  7.6432
12. COc1ccccc1CN1CCC(Nc2ccnc3cc(Cl)ccc23)CC1 [SJ000523097]  8.596
13. CCC(CC)CN1CCC(Nc2ccnc3cc(Cl)ccc23)CC1 [SJ000523086]  9.754
14. Fc1ccc(CN2CCC(Nc3ccnc4cc(Cl)ccc34)CC2)cc1 [SJ000523093]  10.6575
15. CCC(C)CN1CCC(Nc2ccnc3cc(Cl)ccc23)CC1 (stereo not shown) [SJ000523105]  11.185
16. Cc1cc(C)c(CN2CCC(Nc3ccnc4cc(Cl)ccc34)CC2)c(C)c1 [SJ000523084]  11.7451
17. COc1ccc(CN2CCC(Nc3ccnc4cc(Cl)ccc34)CC2)cc1OC [SJ000523103]  11.7451
18. CCCCCN1CCC(Nc2ccnc3cc(Cl)ccc23)CC1 [SJ000523088]  12.1652
19. CN(C)c1ccc(CN2CCC(Nc3ccnc4cc(Cl)ccc34)CC2)cc1 [SJ000523102]  13.0905
20. Clc1ccc2c(NC3CCN(CC4CCCCC4)CC3)ccnc2c1 [SJ000523085]  15.4273
21. Cc1cccc(CN2CCC(Nc3ccnc4cc(Cl)ccc34)CC2)c1 [SJ000523101]  18.5377
22. Cc1ccc(C)c(CN2CCC(Nc3ccnc4cc(Cl)ccc34)CC2)c1 [SJ000523106]  18.6767
23. Clc1ccc2c(NC3CCN(CCCc4ccccc4)CC3)ccnc2c1 [SJ000523104]  20.6486
24. COc1ccc(CN2CCC(Nc3ccnc4cc(Cl)ccc34)CC2)cc1 [SJ000523090]  23.7178
25. CCCCCCN1CCC(Nc2ccnc3cc(Cl)ccc23)CC1 [SJ000523108]  29.2961

Same assay, conditions: single point TR-FRET screening of quinoline compounds against MAGE-A11:PCF11; 15 µM

In order of rising “percent inhibition (TR-FRET)” value:
1. CCCN(CCCCCC(=O)OC)CCCNc1c2ccc(Cl)cc2nc2ccc(OC)cc12 [SJ000575151]  -37.4059
2. CCCN(CCCNc1c2ccc(Cl)cc2nc2ccc(OC)cc12)CC1CCOC1 (stereo not shown) [SJ000575149]  -35.9356
3. CCCN(CCCNc1c2ccc(Cl)cc2nc2ccc(OC)cc12)Cc1cccnc1 [SJ000575152]  -23.4028
4. CCCN(CCCNc1c2ccc(Cl)cc2nc2ccc(OC)cc12)CC(C)C [SJ000575150]  -21.3723
5. CCCN(CCCNc1ccnc2cc(C(F)(F)F)ccc12)Cc1ccccc1[N+](=O)[O-] [SJ000523071]  -7.745
6. CCCN(CCCNc1ccnc2cc(C(F)(F)F)ccc12)CC1CCOC1 (stereo not shown) [SJ000575190]  1.787
7. CCCN(CCCNc1ccnc2cc(C(F)(F)F)ccc12)Cc1ccc(Cl)cc1Cl [SJ000523078]  3.83
8. CCCN(CCCNc1ccnc2cc(C(F)(F)F)ccc12)Cc1scnc1C [SJ000575179]  5.164
9. CCCN(CCCNc1ccnc2cc(C(F)(F)F)ccc12)Cc1cccnc1Br [SJ000575180]  5.164
10. Cc1c(CNCCCNc2ccnc3cc(Cl)ccc23)c(=O)n(-c2ccccc2)n1C [SJ000523058]  5.584
11. CCCN(CCCCCC(=O)OC)CCCNc1ccnc2cc(C(F)(F)F)ccc12 [SJ000575191]  5.6
12. CCCN(CCCNc1ccnc2cc(C(F)(F)F)ccc12)Cc1nccn1C [SJ000575170]  7.1241
13. CCCN(CCCNc1ccnc2cc(C(F)(F)F)ccc12)Cc1nccs1 [SJ000575189]  8.665
14. CCCN(CCCNc1ccnc2cc(C(F)(F)F)ccc12)Cc1ncc[nH]1 [SJ000575181]  9.345
15. CCCN(CCCNc1ccnc2cc(C(F)(F)F)ccc12)Cc1ccc2ccccc2c1 [SJ000523075]  11.3882
16. CCCN(CCCNc1ccnc2cc(C(F)(F)F)ccc12)Cc1cccc2ccccc12 [SJ000523074]  14.3161
17. CCCN(CCCNc1ccnc2cc(C(F)(F)F)ccc12)Cc1ccc(OC)c(OC)c1 [SJ000523079]  14.6566
18. Clc1ccc2c(NCCCNCc3ccsc3)ccnc2c1 [SJ000523052]  15.2459
19. CCCN(CCCNc1ccnc2cc(C(F)(F)F)ccc12)Cc1cnn(C)c1 [SJ000575182]  15.6779
20. CCCN(CCCNc1ccnc2cc(C(F)(F)F)ccc12)Cc1ccccc1C(=O)O [SJ000523073]  16.8563
21. CC(CCNCCCNc1ccnc2cc(Cl)ccc12)c1ccccc1 (stereo not shown) [SJ000523053]  19.0144
22. CCCN(CCCNc1ccnc2cc(C(F)(F)F)ccc12)Cc1cccc(C)c1 [SJ000523076]  20.1719
23. O=[N+]([O-])c1ccccc1-c1ccc(CNCCCNc2ccnc3cc(Cl)ccc23)o1 [SJ000523068]  21.6545
24. CCCN(CCCNc1ccnc2cc(C(F)(F)F)ccc12)Cc1cc(C)ccc1C [SJ000523082]  21.738
25. CCCN(CCCNc1ccnc2cc(C(F)(F)F)ccc12)CC(C)CC (stereo not shown) [SJ000523081]  22.2827
26. CCCN(CCCNc1ccnc2cc(C(F)(F)F)ccc12)Cc1ccc(N(C)C)cc1 [SJ000523077]  23.7127
27. CCCCCNCCCNc1ccnc2cc(Cl)ccc12 [SJ000523057]  25.8183
28. CCCN(CCCNc1ccnc2cc(C(F)(F)F)ccc12)Cc1ccc(F)cc1 [SJ000523070]  26.4363
29. CCCN(CCCNc1ccnc2cc(C(F)(F)F)ccc12)CCCc1ccccc1 [SJ000523080]  28.0024
30. CCCN(CCCNc1ccnc2cc(C(F)(F)F)ccc12)Cc1ccccc1OC [SJ000523072]  32.6098
31. CCCN(CCCNc1ccnc2cc(C(F)(F)F)ccc12)Cc1ccc2[nH]ccc2c1 [SJ000575171]  32.8899
32. Clc1cccc(-c2ccc(CNCCCNc3ccnc4cc(Cl)ccc34)o2)c1 [SJ000523069]  33.5128
33. CCCCCCN(CCC)CCCNc1ccnc2cc(C(F)(F)F)ccc12 [SJ000523083]  34.9477
